Measured values: ChEMBL document CHEMBL1131895, “Proteasome inhibition by the natural products epoxomicin and dihydroeponemycin: insights into specificity and potency” (Bioorg Med Chem Lett, 1999)

How the values were obtained:
Format in all cases: functional
[1] = Inhibition of the PGPH-like activity
[2] = Inhibition of the chymotrypsin-like activity
[3] = Inhibition of the trypsin-like activity
[4] = Antiproliferative activity of the compound

Compound | k obs / 1 [1] [M⁻¹ s⁻¹] | k obs / 1 [2] [M⁻¹ s⁻¹] | k obs / 1 [3] [M⁻¹ s⁻¹] | IC50 [4] [nM]
CC[C@H](C)[C@H](NC(=O)[C@H]([C@@H](C)CC)N(C)C(C)=O)C(=O)NC(CO)C(=O)NC(CC(C)C)C(=O)[C@@]1(C)CO1 (single isomer, unassigned) | 90 | 32000 | 1100 | 4
CC(C)CCCCC(=O)NC(C(=O)NC(CC(C)C)C(=O)[C@@]1(CO)CO1)[C@@H](C)O (some centres not stated) | 50 | 22 | 5 | 850
CC[C@H](C)[C@H](NC(=O)[C@H]([C@@H](C)CC)N(C)C(C)=O)C(=O)NC(CO)C(=O)NC(CC(C)C)C(=O)[C@@]1(CO)CO1 (single isomer, unassigned) | 35 | 17000 | 470 | 140
CC(C)CCCCC(=O)NC(C(=O)NC(CC(C)C)C(=O)[C@@]1(C)CO1)[C@@H](C)O (some centres not stated) | 45 | 25 | 4 | 520
CC(C)CCCCC(=O)NC(CO)C(=O)N[C@H](CC(C)C)C(=O)[C@@]1(C)CO1 (some centres not stated) | 57 | 34 | 5 | 260
CC[C@H](C)[C@H](NC(=O)[C@H]([C@@H](C)CC)N(C)C(C)=O)C(=O)NC(C(=O)NC(CC(C)C)C(=O)[C@@]1(C)CO1)[C@@H](C)O (single isomer, unassigned) [EPOXOMYCIN] | 43 | 20000 | 310 | 4
CC(C)CCCCC(=O)NC(CO)C(=O)N[C@H](CC(C)C)C(=O)[C@@]1(CO)CO1 (some centres not stated) | 175 | 58 | 17 | 100
CC[C@H](C)[C@H](NC(=O)[C@H]([C@@H](C)CC)N(C)C(C)=O)C(=O)NC(C(=O)NC(CC(C)C)C(=O)[C@@]1(CO)CO1)[C@@H](C)O (single isomer, unassigned) | 37 | 18000 | 290 | 60
